According to US7939548B2, “Certain chemical entities, compositions, and methods” (Cytokinetics, Inc., priority 2006, dated 2011):

molecular target: T1, chicken gizzard smooth muscle myosin subfragment-1 chemically crosslinked to either cardiac or skeletal actin (Gallus gallus, UniProt P10587); test: Smooth muscle myosin ATPase dose response assay (pyruvate kinase/horseradish peroxidase/pyruvate oxidase-coupled); assay type: biochemical; conditions: ATPase activity of crosslinked smooth muscle actomyosin (subfragment-1); amplex red fluorescence; 4 parameter fit; read-out: IC50 Arithmetic Mean
T1 construct: chicken gizzard smooth muscle myosin subfragment-1
Protocol: Screening assays were performed using a pyruvate kinase and lactate dehydrogenase-coupled ATPase assay containing the following reagents: Potassium PIPES (50 mM), MgCl2 (3 mM), KCl (100 mM), ATP (0.15 mM), DTT (1 mM), BSA (0.1 mg/ml), NADH (0.5 mM), PEP (1.5 mM), pyruvate kinase (4 U/ml), lactate dehydrogenase (8 U/ml), and antifoam (50 ppm) (concentrations expressed are final assay concentrations). The pH was adjusted to 6.80 at 22 °C by addition of potassium hydroxide. Lead optimization assays were performed with a more sensitive pyruvate kinase/horseradish peroxidase/pyruvate oxidase-coupled ATPase assay containing the following reagents: Potassium PIPES (12 mM), MgCl2 (2 mM), KCl (100 mM), ATP (0.15 mM), BSA (0.05 mg/ml), potassium phosphate (2 mM), amplex red (0.1 mM), PEP (0.1 mM), pyruvate kinase (4 U/ml), horseradish peroxidase (0.5 U/ml), pyruvate oxidase (0.5 U/ml), and antifoam (50 ppm) (concentrations expressed are final assay concentrations). The pH was adjusted to 7.00 at 22 °C by addition of potassium hydroxide.
The protein components specific to this assay are chicken gizzard smooth muscle myosin subfragment-1 that has been chemically crosslinked to either cardiac or skeletal actin using an excess of 1-Ethyl-3-[3-dimethylaminopropyl]carbodiimide hydrochloride and N-hydroxysuccinimide. The exact concentration of the crosslinked smooth muscle myosin in the assay is determined empirically, by titration to achieve a desired rate of ATP hydrolysis. The concentration varies between protein preparations due to variations in the fraction of active molecules in each preparation.
Compound dose response assays are performed by first preparing a dilution series of test compound, each with an assay mixture containing potassium PIPES, MgCl2, KCl, ATP, BSA, potassium phosphate, amplex red, PEP, crosslinked smooth muscle actomyosin (subfragment-1), antifoam, and water. The assay is started by adding an equal volume of solution containing potassium Pipes, MgCl2, KCl, BSA, potassium phosphate, pyruvate kinase, horseradish peroxidase, pyruvate oxidase, antifoam, and water. ATP hydrolysis is monitored by measuring the fluorescence of amplex red (excitation at 480 nm, emission at 615 nm). The resulting dose response curve is fit by the 4 parameter equation y=Bottom+((Top-Bottom)/(1+((IC50/X)^Hill))). The IC50 is defined as the concentration at which ATPase activity is midway between the top and bottom of the dose response curve.

SMILES | IC50
N#Cc1cnc(NCCc2cccc(F)c2)c(C(=O)NCc2ccccn2)c1 [(5-cyano-2-{[2-(3-fluorophenyl)ethyl]amino}(3-pyridyl))-N-(2-pyridylmethyl)carboxamide] | 12.7 µM
CNC(=O)c1ccc(C(=O)NCc2cccnc2)c(NCCc2cccc(F)c2)n1 [(2-{[2-(3-fluorophenyl)ethyl]amino}-6-(N-methylcarbamoyl)(3-pyridyl))-N-(3-pyridylmethyl)carboxamide] | 44.1 µM
C/C=C/c1nc(NCCc2cccc(F)c2)c(C(=O)NCc2cccnc2CNC(=O)OC(C)(C)C)cc1F [(6-((1E)prop-1-enyl)-5-fluoro-2-{[2-(3-fluorophenyl)ethyl]amino}(3-pyridyl))-N-[(2-{[(tert-butoxy)carbonylamino]methyl}(3-pyridyl))methyl]carboxamide] | 11.7 µM
NC(=O)c1ccc(C(=O)NCc2cccnc2)c(NCCc2cccc(F)c2)n1 [6-{[2-(3-fluorophenyl)ethyl]amino}-5-[N-(3-pyridylmethyl)carbamoyl]pyridine-2-carboxamide] | 14 µM
NC(=O)CCCNc1ccc(C(=O)NCc2cccnc2)c(NCCc2cccc(F)c2)n1 [(6-[(3-carbamoylpropyl)amino]-2-{[2-(3-fluorophenyl)ethyl]amino}(3-pyridyl))-N-(3-pyridylmethyl)carboxamide] | 42.8 µM
CNC(=O)CNC(=O)c1cc(-c2ccccc2)cnc1NCCc1cccc(F)c1 [2-[(2-{[2-(3-fluorophenyl)ethyl]amino}-5-phenyl(3-pyridyl))carbonylamino]-N-methylacetamide] | 15 µM
O=C(NCc1ccccn1)c1cc(Br)c(Cl)nc1NCCc1cccc(F)c1 [(5-bromo-6-chloro-2-{[2-(3-fluorophenyl)ethyl]amino}(3-pyridyl))-N-(2-pyridylmethyl)carboxamide] | 17.3 µM
O=C(CCCCNc1ccc(C(=O)NCc2cccnc2)c(NCCc2cccc(F)c2)n1)NCc1cccnc1 [5-[(6-{[2-(3-fluorophenyl)ethyl]amino}-5-[N-(3-pyridylmethyl)carbamoyl](2-pyridyl))amino]-N-(3-pyridylmethyl)pentanamide] | 49.2 µM
N#Cc1ccc(C(=O)NCc2cccnc2)c(NCCc2cccc(F)c2)n1 [(6-cyano-2-{[2-(3-fluorophenyl)ethyl]amino}(3-pyridyl))-N-(3-pyridylmethyl)carboxamide] | 65.8 µM
NCc1cccc(CNC(=O)c2cc(-c3ccccn3)cnc2NCCc2cccc(F)c2)n1 [N-{[6-(aminomethyl)(2-pyridyl)]methyl}(2-{[2-(3-fluorophenyl)ethyl]amino}-5-(2-pyridyl)(3-pyridyl))carboxamide] | 16 µM
O=C(NCc1cccnc1)c1cccnc1NCCc1cccc(F)c1 [(2-{[2-(3-fluorophenyl)ethyl]amino}(3-pyridyl))-N-(3-pyridylmethyl)carboxamide] | 26.8 µM
Cn1cc(-c2cnc(NCCc3cccc(F)c3)c(C(=O)NCc3cccc(CN)n3)c2)cn1 [N-{[6-(aminomethyl)(2-pyridyl)]methyl}(2-{[2-(3-fluorophenyl)ethyl]amino}-5-(1-methylpyrazol-4-yl)(3-pyridyl))carboxamide] | 17.7 µM
Cc1cccc(CNC(=O)c2cc(Br)cnc2NCCc2cccc(F)c2)n1 [(5-bromo-2-{[2-(3-fluorophenyl)ethyl]amino}(3-pyridyl))-N-[(6-methyl(2-pyridyl))methyl]carboxamide] | 17.7 µM
O=C(NCc1cccnc1)c1ccc(NCCO)nc1NCCc1cccc(F)c1 [(2-{[2-(3-fluorophenyl)ethyl]amino}-6-[(2-hydroxyethyl)amino](3-pyridyl))-N-(3-pyridylmethyl)carboxamide] | 13.1 µM
CNC(=O)CCCCNc1ccc(C(=O)NCc2cccnc2)c(NCCc2cccc(F)c2)n1 [5-[(6-{[2-(3-fluorophenyl)ethyl]amino}-5-[N-(3-pyridylmethyl)carbamoyl](2-pyridyl))amino]-N-methylpentanamide] | 38 µM

More lines, now with the values ahead:

IC50 | SMILES
8.47 µM | O=C(NCc1cccnc1)c1ccc(NCCCO)nc1NCCc1cccc(F)c1 [(2-{[2-(3-fluorophenyl)ethyl]amino}-6-[(3-hydroxypropyl)amino](3-pyridyl))-N-(3-pyridylmethyl)carboxamide]
10.5 µM | CC(O)CN(C)c1ccc(C(=O)NCc2cccnc2)c(NCCc2cccc(F)c2)n1 (centres unmarked) [(2-{[2-(3-fluorophenyl)ethyl]amino}-6-[(2-hydroxypropyl)methylamino](3-pyridyl))-N-(3-pyridylmethyl)carboxamide]
0.78 µM | C/C=C/c1nc(NCCc2cccc(F)c2)c(C(=O)NCc2cccnc2)cc1Br [(6-((1E)prop-1-enyl)-5-bromo-2-{[2-(3-fluorophenyl)ethyl]amino}(3-pyridyl))-N-(3-pyridylmethyl)carboxamide]
5.61 µM | O=C(NCc1cccnc1)c1ccc(NCc2cccnc2)nc1NCCc1cccc(F)c1 [(2-{[2-(3-fluorophenyl)ethyl]amino}-6-[(3-pyridylmethyl)amino](3-pyridyl))-N-(3-pyridylmethyl)carboxamide]
11.8 µM | O=C(NCc1ccccn1)c1cc(Br)cnc1NCCc1cccc(F)c1 [(5-bromo-2-{[2-(3-fluorophenyl)ethyl]amino}(3-pyridyl))-N-(2-pyridylmethyl)carboxamide]
9.84 µM | NCc1cccc(CNC(=O)c2cc(-c3ccncc3)cnc2NCCc2cccc(F)c2)n1 [N-{[6-(aminomethyl)(2-pyridyl)]methyl}(2-{[2-(3-fluorophenyl)ethyl]amino}-5-(4-pyridyl)(3-pyridyl))carboxamide]
9.72 µM | O=C(NCc1cccc(CN2C(=O)c3ccccc3C2=O)n1)c1cc(Br)cnc1NCCc1cccc(F)c1 [N-({6-[(1,3-dioxobenzo[c]azolin-2-yl)methyl](2-pyridyl)}methyl)(5-bromo-2-{[2-(3-fluorophenyl)ethyl]amino}(3-pyridyl))carboxamide]
6.74 µM | NC(=O)CCCCNc1ccc(C(=O)NCc2cccnc2)c(NCCc2cccc(F)c2)n1 [(6-[(4-carbamoylbutyl)amino]-2-{[2-(3-fluorophenyl)ethyl]amino}(3-pyridyl))-N-(3-pyridylmethyl)carboxamide]
7.39 µM | NCc1cccc(CNC(=O)c2cc(-c3cccnc3)cnc2NCCc2cccc(F)c2)n1 [N-{[6-(aminomethyl)(2-pyridyl)]methyl}(2-{[2-(3-fluorophenyl)ethyl]amino}-5-(3-pyridyl)(3-pyridyl))carboxamide]
4.35 µM | COC(=O)c1ccc(C(=O)NCc2cccnc2)c(NCCc2cccc(F)c2)n1 [methyl 6-{[2-(3-fluorophenyl)ethyl]amino}-5-[N-(3-pyridylmethyl)carbamoyl]pyridine-2-carboxylate]
0.702 µM | C=C(OCC)c1ccc(C(=O)NCc2cccnc2)c(NCCc2cccc(F)c2)n1 [(6-(1-ethoxyvinyl)-2-{[2-(3-fluorophenyl)ethyl]amino}(3-pyridyl))-N-(3-pyridylmethyl)carboxamide]
10.8 µM | O=C(NCc1cccnc1)c1ccc(NCc2ccccn2)nc1NCCc1cccc(F)c1 [(2-{[2-(3-fluorophenyl)ethyl]amino}-6-[(2-pyridylmethyl)amino](3-pyridyl))-N-(3-pyridylmethyl)carboxamide]
10.5 µM | C/C=C(/C)c1ccc(C(=O)NCc2cccnc2)c(NCCc2cccc(F)c2)n1 [(6-((1Z)-1-methylprop-1-enyl)-2-{[2-(3-fluorophenyl)ethyl]amino}(3-pyridyl))-N-(3-pyridylmethyl)carboxamide]
5.19 µM | CN(C)/C(=N/C#N)c1ccc(C(=O)NCc2cccnc2)c(NCCc2cccc(F)c2)n1 [(6-[(1E)-1-(dimethylamino)-2-cyano-2-azavinyl]-2-{[2-(3-fluorophenyl)ethyl]amino}(3-pyridyl))-N-(3-pyridylmethyl)carboxamide]
8.18 µM | COCCCc1ccc(C(=O)NCc2cccnc2)c(NCCc2cccc(F)c2)n1 [(2-{[2-(3-fluorophenyl)ethyl]amino}-6-(3-methoxypropyl)(3-pyridyl))-N-(3-pyridylmethyl)carboxamide]
7.62 µM | COCCNc1ccc(C(=O)NCc2cccnc2)c(NCCc2cccc(F)c2)n1 [(2-{[2-(3-fluorophenyl)ethyl]amino}-6-[(2-methoxyethyl)amino](3-pyridyl))-N-(3-pyridylmethyl)carboxamide]
3.45 µM | COC(=O)/C=C(\C)c1ccc(C(=O)NCc2cccnc2)c(NCCc2cccc(F)c2)n1 [methyl (2E)-3-(6-{[2-(3-fluorophenyl)ethyl]amino}-5-[N-(3-pyridylmethyl)carbamoyl](2-pyridyl))but-2-enoate]
